{"source": "patent US20020082193A1", "about": "“Inhibition of mitochondrial calcium/sodium antiporter” (priority 2000, published 2002)", "key": {"[1]": {"tested_on": "pancreatic islets of Langerhans", "assay": "Glucose-stimulated insulin secretion (GSIS) by isolated rat islets, insulin ELISA", "type": "cell-based, Sprague-Dawley rats", "conditions": "1 μM compound", "procedure": "Pancreatic islets of Langerhans were isolated from adult male Sprague-Dawley rats using a standard collagenase infusion and digestion procedure as described in Example 5. Islets were cultured at 37° C. for 1-2 days in CMRL-1066 medium supplemented with 5.5 mM glucose, 10% fetal bovine serum, 100 U/ml penicillin and 100 μg/ml streptomycin, in a humidified atmosphere containing 5% CO2. Islets were manually picked and washed in Krebs Ringer Bicarbonate buffer (KRB: 134 mM NaCl, 4.7 mM KCl, 1.2 mM KH2PO4, 1.2 mM MgSO4, 1 mM CaCl2, 10 mM NaHCO3, pH 7.4) in preparation for measurement of glucose-stimulated insulin secretion (GSIS). Aliquots of washed islets were preincubated in oxygenated KRB supplemented with 16 mM HEPES, 0.01% fetal bovine serum and 5.5 mM glucose for 60 min at 37° C. […] Cell-conditioned media samples were then collected by centrifugation and their insulin content was determined using enzyme-linked immunosorbent assay (ELISA) kits (CrystalChem or ALPCO rat insulin ELISA) according to the kit supplier's instructions. Following treatment with a preferred compound, the concentration of insulin detected in the islet-conditioned medium was at least 1.5 times the insulin concentration detected in the medium conditioned by islets that were exposed to 8 mM glucose. […]"}, "[2]": {"molecular_target": "T1, mitochondrial calcium/sodium antiporter (Rattus norvegicus, UniProt Q6AXS0)", "T1 construct": "endogenous in cells; host or cells: INS-1 rat insulinoma cells, digitonin-permeabilized", "T1 sequence (Q6AXS0 27-585)": "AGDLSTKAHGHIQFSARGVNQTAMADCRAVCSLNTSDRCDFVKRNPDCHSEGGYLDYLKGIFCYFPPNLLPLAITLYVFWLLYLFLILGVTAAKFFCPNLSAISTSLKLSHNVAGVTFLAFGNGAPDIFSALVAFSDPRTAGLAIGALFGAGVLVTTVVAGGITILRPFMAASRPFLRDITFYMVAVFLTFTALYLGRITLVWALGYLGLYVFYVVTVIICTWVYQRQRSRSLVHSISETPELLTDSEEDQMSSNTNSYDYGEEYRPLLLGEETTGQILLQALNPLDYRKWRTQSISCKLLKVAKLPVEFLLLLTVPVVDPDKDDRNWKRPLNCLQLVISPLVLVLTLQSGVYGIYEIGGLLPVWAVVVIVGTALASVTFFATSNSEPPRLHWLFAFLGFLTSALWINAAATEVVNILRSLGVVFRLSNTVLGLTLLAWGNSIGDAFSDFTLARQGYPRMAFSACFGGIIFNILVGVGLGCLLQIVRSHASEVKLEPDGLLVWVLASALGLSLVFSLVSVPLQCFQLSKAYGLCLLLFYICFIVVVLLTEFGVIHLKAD", "assay": "Inhibition of mitochondrial calcium/sodium antiporter activity in digitonin-permeabilized INS-1 cells (calcium green 5N)", "type": "cell-based", "procedure": "INS-1 rat insulinoma cells (see Example 3) were harvested by trypsinization, washed and resuspended at 10×10^6 cells/ml in assay buffer (250 mM sucrose, 10 mM HEPES, 2.5 mM K2HPO4, 5 mM succinate, pH 7.4) containing 0.007% digitonin, 60 μM CaCl2 and 0.05 μM calcium green 5N (Molecular Probes, Inc., Eugene, OR). After a five minute calcium loading incubation, ruthenium red (1 μM; Sigma, St. Louis, MO) was added to block further calcium uptake by mitochondria. Cell suspensions were dispensed into 96-well plates (100 μl per well, 1×10^6 cells per well) and candidate agents (i.e., candidate mitochondrial calcium/sodium antiporter inhibitors) were added to some sets of triplicate wells at concentrations of 1, 10 or 100 μM, while other sets of wells provided appropriate control conditions (e.g., buffer and vehicle controls). Baseline fluorescence measurements were made using a multiwell plate fluorimeter (F-MAX™, Molecular Devices Corp., Sunnyvale, Calif.; or PolarStar , BMG Labtechnologies, Inc., Durham, N.C.) according to the manufacturer's instructions. Calcium efflux from mitochondria was then induced by adding NaCl to all wells to achieve a final concentration of 20 mM, and the rate of change in fluorescence in each well was monitored was monitored for two minutes and quantified using software included with the plate reader."}, "[3]": {"molecular_target": "T2, mitochondrial Na+/Ca2+ exchanger (Rattus norvegicus, UniProt Q6AXS0)", "T2 construct": "Rat heart mitochondria were isolated using a modified differential centrifugation protocol; from tissue; host or cells: rat heart mitochondria", "T2 sequence (Q6AXS0 27-585)": "T1 sequence (Q6AXS0 27-585)", "assay": "Na+-induced Ca2+ release from rat heart mitochondria, Ca2+-selective electrode", "type": "biochemical", "conditions": "20 μM compound", "procedure": "(§1) Rat heart mitochondria were isolated using a modified differential centrifugation protocol essentially as described by Sordahl (Methods in Studying Cardiac Membranes (1984), pp 65-74). Experiments to assess effects on transmitochondrial membrane transport of calcium were carried out at 25° C. in a buffer consisting of 250 mM sucrose, 10 mM HEPES (pH 7.4), 5 mM Pi, 5 mM succinate, 1 μM rotenone, supplemented with 1 μM cyclosporine A to prevent interference from the Ca^2+-dependent permeability transition pore (PTP). Ca^2+ uptake and release were measured using a Ca^2+-selective electrode in a custom-constructed chamber additionally equipped for monitoring mitochondrial swelling via changes in light scattering (World Precision Instruments, Inc., Sarasota, Fla.). Alternatively, Ca^2+ fluxes were followed fluorometrically using the Calcium Green 5N™ indicator according to the supplier's recommendations (Molecular Probes, Eugene, Oreg.).\n(§2) Mitochondria (0.5 mg/ml) that were energized by the presence of succinate accumulated endogenous Ca^2+ from the medium (trace calcium from water source). Additional Ca^2+ (20 μM ) was added to the reaction buffer 2-3 minutes following commencement of measurements with the calcium electrode. […] No PTP activation (swelling) was detected under experimental conditions used."}, "[4]": {"tested_on": "mitochondrial calcium/sodium antiporter (MCA) from beef heart mitochondria", "assay": "Sodium-calcium exchange in proteoliposomes reconstituted with affinity isolated MCA", "type": "biochemical", "conditions": "100 μM calcium chloride, FIG. 8", "procedure": "From a separate preparation of beef heart mitochondria, affinity isolation of the MCA was performed as just described, except that 1% CHAPS was substituted for 1% Triton X-100 in the initial solubilization, and following the column wash steps, retained components (including proteins bound to the affinity matrix) were eluted with 50 mM diltiazem. The column eluate containing proteins was incorporated into proteoliposomes essentially as described by Li et al (1992 J. Biol. Chem. 267: 17983-17989), using Calcium Green SN as the internal fluorescent probe (Molecular Probes, Eugene, OR), and calcium transport activity of the MCA was measured essentially as described by Li et al. (1992). Briefly, calcium chloride (100 μM) was added to a suspension of Calcium Green 5N-loaded proteoliposomes to initiate sodium-calcium exchange, which was measured as an increase in fluorescence as the calcium entered the vesicles that contained Calcium Green 5N. […] Data points in FIG. 8 represent average values at each concentration from two independent experiments."}, "[5]": {"tested_on": "INS-1 rat insulinoma cells", "assay": "Insulin secretion by INS-1 cells, basal or 8 mM glucose (radioimmunoassay)", "type": "cell-based", "conditions": "15, 30 or 60 minutes, FIG. 2", "procedure": "INS-1 rat insulinoma cells were provided by Prof. Claes Wollheim, , Geneva, Switzerland, and cultured at 37° C. in a humidified […] (Gibco BRL, Gaithersburg, Md.) fetal bovine serum (Irvine Scientific, Irvine, Calif.), 2 mM […], 100 U/ml streptomycin, 10 mM HEPES, 1 mM sodium pyruvate and 50 μM β-mercaptoethanol (all reagents Sigma, St. Louis, Mo., unless otherwise noted).\nINS-1 cells were seeded into 24-well plates containing RPMI media supplemented at 0.5×10^6 cells/well and cultured at 37° C., 5% CO2 for 2 days. Cells at or near confluence (0.7×10^6cells/well) were rinsed with glucose-free KRH buffer (134 mM NaCl, 4.7 mM KCl, 1.2 mM KH2PO4, 1.2 mM MgSO4, 1.0 mM CaCl2, 10 mM HEPES-ph 7.4, 25 mM NaHCO3, 0.5% BSA), then incubated in the same buffer for 1 hr at 37° C. in a humidified 5% CO2/95% air atmosphere. […] Insulin concentrations in the supernatants were measured and normalized to cell number using an insulin-specific radioimmunoassay kit (ICN Biochemicals, Irvine, Calif.) according to the manufacturer's instructions. […]"}, "[6]": {"tested_on": "rat pancreatic islet cells", "assay": "Insulin secretion by rat pancreatic islet cells, 5 mM or 8 mM glucose (FIG. 3)", "type": "cell-based", "conditions": "various concentrations"}, "[7]": {"molecular_target": "T2, mitochondrial Na+/Ca2+ exchanger", "assay": "Na+-induced Ca2+ release from mitochondria, Calcium Green 5N fluorescence", "type": "biochemical", "procedure": "as §1, §2"}}, "note": "Like-named read-outs stand apart in the source and are kept apart here."}
{"smiles": "O=C1C[S+]([O-])C(c2ccccc2Cl)c2cc(Cl)ccc2N1", "note": "(stereo not drawn) [Compound No. 24]", "values": [{"measurement": "stimulation of GSIS relative to GSIS detected with 8 mM glucose", "setting": "[1]", "result": 178, "unit": "%"}, {"measurement": "IC50", "setting": "[2]; permeabilized INS-1 cells, 20 mM NaCl-induced calcium efflux, read-out: IC50, MCA inhibition", "result": "< 100", "unit": "µM"}]}
{"smiles": "O=C1CSC(c2ccccc2Cl)c2cc(Cl)ccc2N1", "note": "(stereo not drawn) [Compound No. 1, 7-chloro-5-(2-chlorophenyl)-1,5-dihydro-4,1-benzothiazepin-2-one]", "values": [{"measurement": "inhibition at 20 µM", "setting": "[3]", "result": "~50", "unit": "%"}, {"measurement": "inhibition of Na+-induced rapid Ca2+ release", "setting": "[3]; FIG. 4", "result": "inhibited completely"}, {"measurement": "inhibition of sodium-calcium exchange activity", "setting": "[4]", "result": "inhibited in a dose-dependent fashion"}, {"measurement": "glucose stimulated insulin secretion by INS-1 cells", "setting": "[5]", "result": "enhanced"}, {"measurement": "stimulation of GSIS relative to GSIS detected with 8 mM glucose", "setting": "[1]", "result": "222 (±48) %"}, {"measurement": "glucose stimulated insulin secretion by rat islets", "setting": "[6]", "result": "enhancement"}]}
{"smiles": "O=C1CSC(c2ccccc2Cl)c2ccccc2N1", "note": "(stereo not drawn) [compound 23]", "values": [{"measurement": "IC50", "setting": "[2]", "result": "< 100", "unit": "µM"}]}
{"smiles": "O=C(O)CN1C(=O)CSC(c2ccccc2Cl)c2cc(Cl)ccc21", "note": "(stereo not drawn) [Compound No. 2]", "values": [{"measurement": "concentrations at which inhibition was observed", "setting": "[7]", "result": "≥ 100", "unit": "µM"}]}
{"smiles": "Cc1ccccc1C1OCC(=O)Nc2ccc(Cl)cc21", "note": "(stereo not drawn) [compound 10]", "values": [{"measurement": "IC50", "setting": "[2]", "result": "< 100", "unit": "µM"}]}
{"smiles": "Cc1ccc(C2SCC(=O)Nc3ccc(Cl)cc32)c(C)c1", "note": "(stereo not drawn) [compound 21]", "values": [{"measurement": "IC50", "setting": "[2]", "result": "< 100", "unit": "µM"}]}
